Measured values from patent publication US20240156764A1, “INHIBITION OF URACIL DNA GLYCOSYLASE IN THE OPEN CONFORMATION” (CASE WESTERN RESERVE UNIVERSITY, priority 2022, published 2024).

Tested on: uracil removal (U:G base pair) in MCF-7 cells
Experiment: Host-cell reactivation assay, uracil removal from reporter plasmid, MCF-7
Assay type: cell-based, human
Experimental: A: MCF-7 cells were seeded at 50,000 cells per well in a 12-well plate. B: HAP cells (wild type or UNG gene knockout) were seeded at 75,000 cells per well in a 6-well plate. […] After 24 hours, cells were dissociated by trypsinization and analyzed by flow cytometry using an Atune NxT flow cytometer. Gating and compensation were determined by transfection of single-color controls. Reporter expression was calculated for each dose of ATA as previously described in publications and normalized to DMSO treatment.
Panel A: 1.25 μM and panel B: 2.5 μM. Reporter expression was calculated for each dose of ATA as described in prior publications and normalized to DMSO treatment.
Removal of uracil in cells was measured using a reporter plasmid containing a dU:dG base pair (referred to as BFP_U), as described previously. […] The reciprocal of BFP_U reporter expression was calculated for each experimental condition. […] This creates a premature stop codon, completely abolishing fluorescence. Removal of thymidine followed by insertion of dC opposite dG restores reporter fluorescence.
Human breast cancer MCF-7 cells were seeded at 50,000 cells per well in a 12-well plate, while HAP cells (wild type or UNG knockout) were seeded at 75,000 cells per well in a 6-well plate. […] After 24 hours, cells were dissociated by trypsinization and analyzed by flow cytometry using an Atune NxT flow cytometer. […]

With O=C(O)C1=CC(=C(c2ccc(O)c(C(=O)O)c2)c2ccc(O)c(C(=O)O)c2)C=CC1=O [ATA, aurintricarboxylic acid] the “uracil removal in MCF-7 cells” value (ATA 2.5 μM, 24 hr) was “significantly inhibited uracil removal” and the “uracil removal in MCF-7 cells at increasing concentrations” value (ATA up to 10 μM vs 2.5 μM) was “not statistically different from the 2.5 μM dose”.
